Test results reported in US5719287A, “Intermediates for inhibitors of HIV protease and method of preparation thereof” (Eli Lilly and Company, priority 1995, dated 1998).

biological target: T1, HIV-1 protease (Human immunodeficiency virus type 1 group M subtype B, UniProt P04585); test: biochemical; conditions: purified HIV-1 protease, MES-ALB buffer pH 5.5; 1 h preincubation, 16 h with substrate, room temperature; IC50 values for Examples 2-70 are standardized relative to Ex 1
T1 construct: Purified HIV-1 protease was obtained as described below; made in house; host or cells: E. coli K12 L507/pHP10D (NRRL B-18560)
Experimental: N^α -Biotin-[…]Ne-FITC)-OH
The purified peptide was labeled as follows with a fluorescent marker at the C-terminal end for use in the assay. N^α -Biotin-Gly-Ser-Gln-Asn-Tyr-Pro-lle-Val-Gly-Lys-OH (1.206 g, 0.936 mmoles) was dissolved in 100 mL of 0.1M sodium borate, pH 9.5 with stirring. Then, 3 g of fluorescein isothiocyanate (7.7 mmol) was dissolved in 15 mL dimethyl sulfoxide and the solution added to the reaction in 10 equal portions over the course of a two hour period. The reaction was allowed to proceed for a further one hour after the final addition had been made. The pH of the solution was adjusted to 3 with 5N HCl. A precipitate formed which was removed from the reaction by centrifugation.
Fluorescence HIV-1 Protease Inhibitor Assay Procedure.
To each well of a round bottom, 96-well plate is added 20 μl of the Enzyme Solution followed by 10 μl of the compound to be evaluated in 20% aqueous DMSO. Purified HIV-1 protease was obtained as described below. The solution is incubated for one hour at room temperature and then 20 μl of a solution of the substrate N^α -Biotin-[…]N^e -FITC)-OH, in MES-ALB buffer (1.5 μl/ml) is added to each well. The solutions are incubated for 16 hours at room temperature and thereafter to each well is added 150 μl of MES-ALB buffer.
To each well of a 96-well Pandex plate is added 25 μl of the Avidin Coated Beads Solution. Next, 25 μl of the diluted incubation solutions, described above, are added to each well of the Pandex plate. The solutions are mixed well and the plates are loaded into a Pandex® machine, washed, evacuated and read. Sample detection was performed by excitation at 485 nm and reading the resulting epifluorescence at 535 nm.
A culture of E. coli K12 L507/pHP10D was grown to mid-log phase at 32° C. in LB media containing 12.5 μg/ml tetracycline. The cultivation temperature was quickly elevated to 40° C. to induce gene expression, and the cells were allowed to grow for 2.5 hours at this temperature before the culture was quickly chilled on ice. The cells were centrifuged and the cell pellet was resuspended in 20 ml 50 mmol MES buffer (pH 6.0) containing 1 mmol EDTA, 1 mmol DTT, 1 mmol PMSF, and 10% glycerol (Buffer A). Cells were lysed by sonication using a Fischer Model 300 Dismembrator and a microtip probe. […] Enzymatic activity was measured by HPLC using the synthetic peptide SQNYPIV as described in Margolin et al., Biochem. Biophys. Res. Commun., 167, 554-560 (1990); the production of the pl peptide (SQNY) was measured.
Active fractions were pooled, made 1.2M in ammonium sulfate, and applied to a hexyl agarose column (2.0×18 cm) equilibrated in Buffer A containing 1.2M ammonium sulfate. The sample, in 125 ml (1.85 mg/ml), was loaded at a flow rate of 1 ml/min at 4° C. […] The column was then washed isocratically in Buffer A for 120 min. Active fractions were pooled, concentrated to 10 ml using an Amicon stirred cell with a YM-10 membrane, and applied at 1 ml/min to a MonoS cation exchange column (1.0×10 cm) equilibrated in Buffer A. After washing isocratically for 30 min, protease was eluted using a linear gradient of 0-0.45M NaCl in Buffer A over 40 min followed by an isocratic wash with Buffer A containing 0.45M NaCl over 30 min. Chromatography was performed at 25° C.
Pooled active fractions were concentrated to 200 ul using an Amicon stirred cell and a YM-10 membrane, and the protease was then applied to a Superose 6 size exclusion column equilibrated in Buffer A containing 0.1M NaCl. The column was washed isocratically in this buffer at a flow rate of 0.5 ml/min.

Row | SMILES | Fluorescence Assay IC50 [µg/mL]
1 | CC(C)(C)NC(=O)c1ccccc1C[C@@H](O)[C@H](Cc1ccccc1)NC(=O)[C@H](CC(N)=O)NC(=O)OCc1ccccc1 (relative stereo) [Example 11, [2R-(2R*, 3S*, 6S*)]-N-t-butyl-2-(2-hydroxy-3-phenylmethyl-4-aza-5-oxo-6-(2-amino-2-oxomethyl)-6-phenylmethoxycarbonyl)hexyl)benzamide] | 0.01

same assay, conditions: read-out: Fluorescence Assay IC50 (converted)

Row | IC50 [nM] | SMILES
2 | 12.7 | CC(C)(C)NC(=O)c1cc2ccccc2cc1C[C@@H](O)[C@H](Cc1ccccc1)NC(=O)[C@H](CC(N)=O)NC(=O)c1ccc2ccccc2n1 (relative stereo) [Example 5, 1S-(1R*. 4R*, 5S*)]-N-(1-(2-amino-2-oxoethyl)-2-oxo-3-aza-4-phenylmethyl-5-hydroxy-6-(3-(1-t-butylamino-1-oxomethyl)-2-naphthyl)hexyl)-2-quinolinyl carboxamide]
3 | 1060 | CC(C)(C)NC(=O)c1ccccc1C[C@@H](O)[C@H](Cc1ccccc1)NC(=O)[C@H](CC(N)=O)NC(=O)C1Cc2ccccc2CN1 (single isomer, unassigned) [Example 36, [1S-(1R*, 4R*, 5S*)]-N-(1-(2-amino-2-oxoethyl)-2-oxo-3-aza-4-phenylmethyl-5-hydroxy-6-(2-(1-t-butylamino-1-oxomethyl)phenyl)hexyl)-3-(1,2,3,4-tetrahydroisoquinolinyl) carboxamide]
4 | 34.2 | CC(C)(C)NC(=O)c1ccccc1C[C@@H](O)[C@H](Cc1ccccc1)NC(=O)[C@H](CC(N)=O)NC(=O)C1Cc2ccccc2CN1 (single isomer, unassigned) [Example 37, [1S-(1R*, 4R*, 5S*)]-N-(1-(2-amino-2-oxoethyl)-2-oxo-3-aza-4-phenylmethyl-5-hydroxy-6-(2-(1-t-butylamino-1-oxomethyl)phenyl)hexyl)-3-(1,2,3,4-tetrahydroisoquinolinyl) carboxamide]
5 | 28.8 | CC(C)(C)NC(=O)c1ccccc1C[C@@H](O)[C@H](Cc1ccccc1)NC(=O)[C@H](CC(N)=O)NC(=O)c1ccc2ccccc2[n+]1[O-] [Example 7, [1S-(1R*, 4R*, 5S*)]-N-(1-(2-amino-2-oxoethyl)-2-oxo-3-aza-4-phenylmethyl-5-hydroxy-6-(2-(1-t-butylamino-1-oxomethyl)phenyl)hexyl)-1-oxo-2-quinolinyl carboxamide]
6 | 12 | CC(C)(C)NC(=O)c1ccccc1C[C@@H](O)[C@H](Cc1ccc(OCc2ccccc2)cc1)NC(=O)[C@H](CC(N)=O)NC(=O)c1ccc2ccccc2n1 [Example 9, [1S-(1R*, 4R*, 5S*)]-N-(1-(2-amino-2-oxoethyl)-2-oxo-3-aza-4-(4-phenylmethyloxy)phenylmethyl-5-hydroxy-6-(2-(1-t-butylamino-1-oxomethyl)phenyl)hexyl)-2-quinolinyl carboxamide]
7 | 94.3 | CC(C)(C)NC(=O)c1ccccc1C[C@@H](O)[C@H](Cc1ccc(O)cc1)NC(=O)[C@H](CC(N)=O)NC(=O)c1ccc2ccccc2n1 [Example 10, [1S-(1R*, 4R*. 5S*) ]-N-(1-(2-amino-2-oxoethyl)-2-oxo-3-aza-4-(4-hydroxyphenyl)methyl-5-hydroxy-6-(2-(1-t-butylamino-1-oxomethyl)phenyl)hexyl)-2-quinolinyl carboxamide]
8 | 890 | CC(C)(C)NC(=O)c1ccccc1C[C@@H](O)[C@H](Cc1ccccc1)NC(=O)[C@H](CO)NC(=O)OCc1ccccc1 [Example 12, [2R-(2R*, 3S*, 6S*)]-N-t-butyl-2-(2-hydroxy-3-phenylmethyl-4-aza-5-oxo-6-hydroxymethyl-6-(N-phenylmethoxycarbonyl-amino)hexyl)benzamide]
9 | 50.8 | CC(C)(C)C(=O)Nc1ccccc1C[C@@H](O)[C@H](Cc1ccccc1)NC(=O)[C@H](CC(N)=O)NC(=O)c1ccc2ccccc2n1 [Example 18, [1S-(1R*, 4R*, 5S*)]-N-(1-(2-amino-2-oxoethyl)-2-oxo-3-aza-4-phenylmethyl-5-hydroxy-6-(2-(2,2-dimethyl-1-oxopropylamino)phenyl)hexyl)-2-quinolinyl carboxamide]
10 | 3.45 | CC(C)(C)NC(=O)c1ccccc1C[C@@H](O)[C@H](Cc1ccccc1)NC(=O)[C@H](CC(N)=O)NC(=O)c1ccc2ccccc2c1 [Example 19, [1S-(1R*, 4R*, 5S*)]-N-(1-(2-amino-2-oxoethyl)-2-oxo-3-aza-4-phenylmethyl-5-hydroxy-6-(2-(1-t-butylamino-1-oxomethyl)phenyl)hexyl)-2-naphthyl carboxamide]
11 | 1.15 | CC(C)(C)NC(=O)c1ccccc1C[C@@H](O)[C@H](Cc1ccccc1)NC(=O)[C@H](CC(N)=O)NC(=O)c1cnc2ccccc2n1 [Example 20, [1S-(1R*, 4R*, 5S*)]-N-(1-(2-amino-2-oxoethyl)-2-oxo-3-aza-4-phenylmethyl-5-hydroxy-6-(2-(1-t-butylamino-1-oxomethyl)phenyl)hexyl)-2-quinoxalinyl carboxamide]
12 | 4.18 | CC(C)(C)NC(=O)c1ccccc1C[C@@H](O)[C@H](Cc1ccccc1)NC(=O)[C@H](CC(N)=O)NC(=O)c1cc2ccccc2[nH]1 [Example 21, [1S-(1R*, 4R*. 5S*)]-N-(1-(2-amino-2-oxoethyl)-2-oxo-3-aza-4-phenylmethyl-5-hydroxy-6-(2-(1-t-butylamino-1-oxomethyl)phenyl)hexyl)-2-indolyl carboxamine]
13 | 10.7 | CC(C)(C)NC(=O)c1ccccc1C[C@@H](O)[C@H](Cc1ccccc1)NC(=O)[C@H](CC(N)=O)NC(=O)c1cc2ccccc2s1 [Example 22, [1S-(1R*, 4R*, 5S*)]-N-(1-(2-amino-2-oxoethyl)-2-oxo-3-aza-4-phenylmethyl-5-hydroxy-6-(2-(1-t-butylamino-1-oxomethyl)phenyl)hexyl)-2-benzo[b]thienyl carboxamide]
14 | 0.641 | Cc1ccc2ccc(C(=O)N[C@@H](CC(N)=O)C(=O)N[C@@H](Cc3ccccc3)[C@H](O)Cc3ccccc3C(=O)NC(C)(C)C)nc2c1 [Example 23, [1S-(1R*, 4R*, 5S*)]-N-(1-(2-amino-2-oxoethyl)-2-oxo-3-aza-4-phenylmethyl-5-hydroxy-6-(2-(1-t-butylamino-1-oxomethyl)phenyl)hexyl)-7-methylquinolin-2-yl carboxamide]
15 | 0.481 | Cc1cccc2ccc(C(=O)N[C@@H](CC(N)=O)C(=O)N[C@@H](Cc3ccccc3)[C@H](O)Cc3ccccc3C(=O)NC(C)(C)C)nc12 [Example 24, [1S-(1R*, 4R*, 5S*)]-N-(1-(2-amino-2-oxoethyl)-2-oxo-3-aza-4-phenylmethyl-5-hydroxy-6-(2-(1-t-butylamino-1-oxomethyl)phenyl)hexyl)-8-methylquinolin-2-yl carboxamide]
16 | 1.12 | Cc1cc(C(=O)N[C@@H](CC(N)=O)C(=O)N[C@@H](Cc2ccccc2)[C@H](O)Cc2ccccc2C(=O)NC(C)(C)C)nc2ccccc12 [Example 26, [1S-(1R*, 4R*, 5S*)]-N-(1-(2-amino-2-oxoethyl)-2-oxo-3-aza-4-phenylmethyl-5-hydroxy-6-(2-(1-t-butylamino-1-oxomethyl)phenyl)hexyl)-4-methylquinolin-2-yl carboxamide]
17 | 8.18 | Cc1cc2ccccc2nc1C(=O)N[C@@H](CC(N)=O)C(=O)N[C@@H](Cc1ccccc1)[C@H](O)Cc1ccccc1C(=O)NC(C)(C)C [Example 27, [1S-(1R*, 4R*. 5S*) ]-N-(1-(2-amino-2-oxoethyl)-2-oxo-3-aza-4-phenylmethyl-5-hydroxy-6-(2-(1-t-butylamino-1-oxomethyl)phenyl)hexyl)-3-methylquinolin-2-yl carboxamide]
